The values that follow come from patent US4923965A, “Tripeptides of N^3 -4-methoxyfumaryl-L-2,3-diaminopropanoic acid” (Politechnika Gdanska, priority 1988, dated 1990).

For test [1], the system named is Candida albicans ATCC 26278. As to the kind of experiment: minimum inhibitory concentration for elected strain. It counts as cell-based. On the procedure:
The in vitro activity has been evaluated by the method of serial dilutions in parallel on solid YNB medium and on YNB w/o+AN medium, where the abbreviation AN means 200 mg of sodium glutamate, 10 mg of L-histidine, 20 mg of DL-methionine, 20 mg DL-tryptophane, 10 g of glucose and 15 g of agar-agar per 1 liter of the YNB medium. The application of the medium modified in such a manner was made necessary by the known phenomenon of lower biological activity in the media containing ammonium sulphate as a source of nitrogen.

A short description of test [2]: MIC stated in the synthesis examples. It is filed as cell-based. Conditions: strain and medium not given.

Values after ≈ are worked out from the molar mass of the structure shown. Where a name gives a salt, the structure may show the parent alone.

With `CCC[C@H](NC(=O)[C@@H](N)CCCCN)C(=O)N[C@@H](CNC(=O)/C=C/C(=O)OC)C(=O)O` [XXII, N^2 --L-lysyl-L-norvalyl-N^3-4-methoxyfumaryl-L-2,3-diaminopropanoic dihydrochloride], the “minimum inhibitory concentration, MIC” value in test [1] was found to be 0.02 µg/mL.

By MIC is commonly meant the lowest concentration found to suppress growth. Higher therefore signals a need for much substance. Regarding `COC(=O)/C=C/C(=O)NC[C@H](N)C(=O)N[C@@H](CCSC)C(=O)N[C@@H](C)C(=O)O` [Example I, N^3-4-methoxyfumaryl-L-2,3-diaminopropanoyl-L-methionyl-L-aniline], the MIC in test [2] was 0.1 µg/mL (≈ 0.239 µM).

For `CCC[C@H](NC(=O)[C@@H](N)CCSC)C(=O)N[C@@H](CNC(=O)/C=C/C(=O)OC)C(=O)O` [XVI, N^2 -L-methionyl-L-norvalyl, N^3-4-methoxyfumaryl-L-2,3-diaminopropanoic hydrochloride], the “minimum inhibitory concentration, MIC” value in test [1] was 0.4 µg/mL. This compound also had an MIC in test [2] of 0.8 µg/mL.

`COC(=O)/C=C/C(=O)NC[C@H](NC(=O)[C@@H](N)CCSC)C(=O)N[C@@H](CCSC)C(=O)O` [VIII, N^2 -L-methionyl, n^3-4-methoxyfumaryl-L-2,3-diaminopropanoyl-L-methonine hydrochloride] returned an MIC in test [2] of 0.8 µg/mL.
